Measurements as given in US8187278B2, “Photodynamic cellular and acellular organism eradication utilizing a photosensitive material and benzalkonium chloride” (Advanced Photodynamic Technologies, Inc., priority 1998, dated 2012).
Read-outs that look alike come from different tables or passages of the source.

Key:
[1] = cited from earlier work
[2] = cited from earlier work; remark: listed apart in the source
[3] = system: several species of bacteria; assay: photoeradication using methylene blue mediated PDT and the surfactant benzalkonium chloride (FIG. 2), qualitative colony count; assay type: cell-based; conditions: diode laser about 664 nm, 100 mw/cm^2, 30 to 40 J/cm^2; methylene blue 0 to 100 μg/ml, benzalkonium chloride 0 to 0.01%; topically applied
Excerpt: One particular treatment protocol according to the present invention utilizes the photosensitive material methylene blue and surfactant benzalkonium chloride. Benzalkonium chloride concentrations from 0.001% to 0.5% have been identified as advantageous in the destruction of certain microorganisms, such as Candida albicans, Escherechia coli, Pseudomonas aeruginosa, Staphylococcus aureus, Klebsellia, Serratia,Haemophilus influenza, and Streptococcus pneumoniae. Reference may be made to FIG. 2, which illustrates a schedule of investigation results. […] The laser used for illumination was a diode laser. Methylene blue concentrations ranged from 0 to 100 μg/ml. Benzalkonium chloride concentrations ranged from 0 to 0.01%. The combined solution was topically applied at the cell site. A light dosage rate was 100 mw/cm^2. Light dosages ranged from 30 to 40 J/cm^2. A qualitative colony count relates particular colony counts to an associated score.

Molecule | yield of the singlet oxygen generation ([1]; pH 5) | yield of the singlet oxygen generation ([1]; pH 9) | toxic effects on administration in high doses ([2]; humans, orally and intravenously, high doses) | tissue toxicity ([2]; in vivo) | sensitization of bacteria to killing by laser irradiation [3]
CN(C)c1ccc2nc3ccc(=[N+](C)C)cc-3sc2c1 [methylene blue] | 0.2 | 0.94 | without any toxic effects | very low tissue toxicity | alone neither the surfactant nor the photosensitizing agent sensitized the bacteria to killing by laser irradiation
alkyl dimethyl benzylammonium chloride [benzalkonium chloride] | – | – | – | – | alone neither the surfactant nor the photosensitizing agent sensitized the bacteria to killing by laser irradiation
